In US20100184807A1, “Methods to inhibit tumor cell growth by using proton pump inhibitors” (Bio-Quant, Inc., priority 2008, published 2010):

Assays:
Assay in all cases: MTT tumor cell growth assay
Type in all cases: cell-based
[1] = test system: HCC2998 (colon cancer); settings: HCC2998 cells, lansoprazole 1-100 μM, 48 hours
Protocol: (§1) In one study, adherent cells were plated approximately 16-24 hours before the day of the experiment in 180 μl growth media. On the day of the experiment, the plated adherent cells were analyzed and counted and suspension cells were plated in 180 μl growth media. 10× lansoprazole compounds and vehicle was prepared. The 10× lansoprazole compounds were prepared by diluting lansoprazole to final concentrations of 100 μM, 30 μM, 10 μM, 3 μM, and 1 μM. A vehicle was prepared by preparing a solution of PBS, equivalent to the volume used for 10 μM lansoprazole wherein the 1× solution constitutes ˜0.06% PBS. 10 μl of the various 10× lansoprazole solutions and the vehicle were added to the cells. The cells were incubated at 37° C., 5% CO2 for 48 hours. The media was then aspirated. The cell suspension was then spun at 1500 RPM for 10 minutes. The media was slowly removed. 200 μl of MTT solution was added to each well with a concentration of 0.863 mg/ml MTT in the growth media. The cells were incubated at 37° C., 5% CO2 for 4 hours and the medium is then aspirated. The plate containing the cell suspension was then spun at 1500 RPM for 10 minutes. The media was slowly removed using a multichannel pipettor. 100 μl of DMSO was then added to each well. The cells were incubated at 37° C., 5% CO2 for 5 minutes and the absorbance was obtained at 560 nm using a Dynex Opsys MR plate reader. The cells used for this procedure were the following cell lines: IGROV1 (ovarian cancer); OVCAR 8 (ovarian cancer); ES-2 (ovarian cancer); CAOV3 (ovarian cancer); OVCAR5 (ovarian cancer); SUDHL4 (lymphoma); RPMI8226 (myeloma); RPMI6666 (Hodgkin's lymphoma); NC37 (lymphoma); GDM-1 (leukemia); MC/CAR (prostate cancer); DU-145 (prostate cancer), J45-01 (leukemia), MOLT3 (leukemia), HUT78, J-gamma-1 (leukemia), MCF7 […], COL0205 (colon cancer), HL60 CLONE 15 (leukemia), T47D (breast cancer), P116 (intestinal cancer), KU812 (leukemia), SW620 (colon cancer), MK92-M1 (lymphoma), MV-4-11 (leukemia), HS578T (breast cancer), HT29 (colon cancer), HCT 116 (colon cancer), CAKI-1 (kidney cancer), A549 (lung cancer), H460 (lung cancer), A3 (colon cancer), MDA-MB231 […], MALME 3M (melanoma), RXF393 (kidney cancer), RS4.11 (leukemia), PC3 (prostate cancer), OVCAR3 (ovarian cancer), MDA-MB435 (melanoma), HUT102 (lymphoma), HL60 (leukemia), CCRF-CEM (leukemia), HUT78 (lymphoma), 786-O (kidney cancer), ACHN (kidney cancer), A498 (kidney cancer), H226 (lung cancer), H522 (lung cancer), HOP92 (lung cancer), SNB 19 (brain cancer), OVCAR4 (ovarian cancer), H9 (lymphoma), UO-31 (kidney cancer), HH (lymphoma), DAUDI (leukemia), LOXIMVI (melanoma), NAMALWA (lymphoma), EKVX (lung cancer), DOHH2 (lymphoma), SNB75 (brain cancer), SKMEL28 (melanoma), SKMEL5 (melanoma), SKMEL2 (melanoma), M14 (melanoma), UACC 257 (melanoma), H332M (lung cancer), KM12 (colon cancer), HCC2998 (colon cancer), G401 (kidney cancer), RS1184 (lymphoma), MC116 (leukemia), MOLT4 (leukemia), JM1 (liver cancer), HOP-62 (lung cancer), HCT-15 (colon cancer), SF-539 (brain cancer), SF295 (brain cancer), ST486 (lymphoma), U251 (brain cancer), and UACC-62 (melanoma).

[2] = test system: EKVX (lung cancer); settings: EKVX cells, lansoprazole 1-100 μM, 48 hours
Protocol: as §1

[3] = test system: HH (lymphoma); settings: HH cells, lansoprazole 1-100 μM, 48 hours
Protocol: as §1

[4] = test system: HT29 (colon cancer); settings: HT29 cells, lansoprazole 1-100 μM, 48 hours
Protocol: as §1

[5] = test system: HOP-62 (lung cancer); settings: HOP-62 cells, lansoprazole 1-100 μM, 48 hours
Protocol: as §1

[6] = test system: OVCAR4 (ovarian cancer); settings: OVCAR4 cells, lansoprazole 1-100 μM, 48 hours
Protocol: as §1

[7] = test system: PC3 (prostate cancer); settings: PC3 cells, lansoprazole 1-100 μM, 48 hours
Protocol: as §1

[8] = test system: HUT102 (lymphoma); settings: HUT102 cells, lansoprazole 1-100 μM, 48 hours
Protocol: as §1

[9] = test system: ST486 (lymphoma); settings: ST486 cells, lansoprazole 1-100 μM, 48 hours
Protocol: as §1

[10] = test system: HL60 (leukemia); settings: HL60 cells, lansoprazole 1-100 μM, 48 hours
Protocol: as §1

[11] = test system: MV-4-11 (leukemia); settings: MV-4-11 cells, lansoprazole 1-100 μM, 48 hours
Protocol: as §1

[12] = test system: A549 (lung cancer); settings: A549 cells, lansoprazole 1-100 μM, 48 hours
Protocol: as §1

[13] = test system: H322M; settings: H322M cells, lansoprazole 1-100 μM, 48 hours
Protocol: as §1

[14] = test system: P116 (intestinal cancer); settings: P116 cells, lansoprazole 1-100 μM, 48 hours
Protocol: as §1

[15] = test system: ES-2 (ovarian cancer); settings: ES-2 cells, lansoprazole 1-100 μM, 48 hours
Protocol: as §1

[16] = test system: H226 (lung cancer); settings: H226 cells, lansoprazole 1-100 μM, 48 hours
Protocol: as §1

[17] = test system: H460 (lung cancer); settings: H460 cells, lansoprazole 1-100 μM, 48 hours
Protocol: as §1

[18] = test system: DOHH2 (lymphoma); settings: DOHH2 cells, lansoprazole 1-100 μM, 48 hours
Protocol: as §1

Measured: tumor cell growth reduction

Cc1c(OCC(F)(F)F)ccnc1C[S+]([O-])c1nc2ccccc2[nH]1 (stereo not drawn) [lansoprazole]
significant tumor cell growth reduction: all assays above
